Consider 6 compounds from patent publication US20220002309A1, “SSAO INHIBITORS AND USES THEREOF” (Metacrine, Inc., priority 2018, published 2022).

This experiment concerns the target T1, Recombinant Human SSAO/VAP-1/AOC3 (Homo sapiens, UniProt Q16853).
T1 construct: purchased R&D systems 3957-AO
T1 sequence (Q16853 1-763): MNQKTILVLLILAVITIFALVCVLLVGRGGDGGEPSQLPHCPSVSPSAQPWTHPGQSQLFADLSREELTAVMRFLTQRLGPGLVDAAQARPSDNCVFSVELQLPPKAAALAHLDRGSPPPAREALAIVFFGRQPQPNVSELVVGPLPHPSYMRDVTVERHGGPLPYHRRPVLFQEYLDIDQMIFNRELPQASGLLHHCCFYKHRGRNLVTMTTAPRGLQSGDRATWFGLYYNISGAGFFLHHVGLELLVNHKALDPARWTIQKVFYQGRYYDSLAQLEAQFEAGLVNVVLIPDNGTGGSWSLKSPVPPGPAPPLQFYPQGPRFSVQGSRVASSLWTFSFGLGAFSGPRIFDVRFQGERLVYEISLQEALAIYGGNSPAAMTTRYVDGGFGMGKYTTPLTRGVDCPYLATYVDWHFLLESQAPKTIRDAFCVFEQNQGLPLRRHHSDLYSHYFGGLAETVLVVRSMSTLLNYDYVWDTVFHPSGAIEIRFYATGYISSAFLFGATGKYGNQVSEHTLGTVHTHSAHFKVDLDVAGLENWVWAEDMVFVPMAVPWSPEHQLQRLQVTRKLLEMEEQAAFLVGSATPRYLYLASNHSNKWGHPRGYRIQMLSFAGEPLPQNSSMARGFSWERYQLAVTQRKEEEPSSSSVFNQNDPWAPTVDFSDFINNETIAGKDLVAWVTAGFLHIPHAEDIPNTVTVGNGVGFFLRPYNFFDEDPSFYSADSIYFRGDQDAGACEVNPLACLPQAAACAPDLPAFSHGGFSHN
Briefly: Human Semicarbazide-Sensitive Amine Oxidase (SSAO) Assay. The experiment is classed as biochemical. The conditions noted are these: recombinant enzyme; 30 minutes preincubation at 37° C.; benzylamine substrate; Amplex Ultra Red/HRP fluorescence. How it is done: Example B-1: Human Semicarbazide-Sensitive Amine Oxidase (SSAO) Assay
Compounds were dissolved in DMSO to provide a Concentration Response Curve (CRC; at 500 times the final concentration) over a range of 6-10 dilutions.
Recombinant Human SSAO/VAP-1/AOC3 (R&D systems; Catalog #3957-AO) was used to screen compound potency in vitro, according to previously described methods (J Pharmacol Exp Ther. 2013 November; 347(2):365-74). SSAO enzyme was suspended in 50 mM HEPES buffer to a working concentration of 2.5 μg/ml and 40 μL of this enzyme mixture was then added to each well of a F16 Black Maxisorp 96 well Plate (Nunc, Catalog #475515). Ten microliters of each test compound (at 5 times the final concentration) were added to each well, resulting in a final well volume of 50 μL of the enzyme and inhibitor mixture. The compounds were preincubated with the enzyme for 30 minutes at 37° C., prior to the addition of a 40 μL volume of Amplex Ultra Red (125 uM AUR; Molecular Probes, Catalog #A36006)/Horseradish peroxidase (2.5 U/ml HRP; Sigma-Aldrich Catalog #P8375) oxidase detection reagent containing cytochrome C (7.5 μM; Sigma-Aldrich Catalog #C7752). Cytochrome C was included in the AUR/HRP detection mixture to reduce the background fluorescence that can occur via the spontaneous redox reaction between AUR and HRP. The SSAO enzyme reaction was then initiated by adding 10 μL of the SSAO substrate, benzylamine (Sigma-Aldrich Catalog #B5136), and SSAO activity was measured in kinetic mode over a 30-120 minute sampling period (excit. 544 nm; emit 590 nm; cut off 570 nm; medium gain) to obtain IC50 values for enzyme activity in each treatment well.

For orientation: IC50 means the concentration at which inhibition is half-maximal. For the compound `COC1(CNC(=O)C23CCC(c4ccc(OC/C(=C/F)CN)cc4)(CC2)CC3)CCCCC1` [Compound 2.102, (E)-4-(4-((2-(aminomethyl)-3-fluoroallyl)oxy)phenyl)-N-((1-methoxycyclohexyl)methyl) bicyclo[2.2.2]octane-1-carboxamide], the half-maximal inhibitory concentration (IC50) was at most 10 nM. The result for `CO[C@H]1CC[C@H](NC(=O)C23CCC(c4ccc(OC/C(=C/F)CN)cc4)(CC2)CC3)CC1` [Compound 2.104, 4-(4-(((E)-2-(aminomethyl)-3-fluoroallyl)oxy)phenyl)-N-((1r,4r)-4-methoxycyclohexyl)bicyclo[2.2.2] octane-1-carboxamide] reads at most 10 nM; that for `COCCO[C@H]1CC[C@H](NC(=O)C23CCC(c4ccc(OC/C(=C/F)CN)cc4)(CC2)CC3)CC1` [Compound 2.142, 4-(4-(((E)-2-(aminomethyl)-3-fluoroallyl)oxy)phenyl)-N-((1r,4r)-4-(2-methoxyethoxy)cyclohexyl)bicyclo [2.2.2]octane-1-carboxamide], at most 10 nM; that for `CC(C)(C)O[C@H]1C[C@@H](NC(=O)C23CCC(c4ccc(OC/C(=C/F)CN)cc4)(CC2)CC3)C1` [Compound 2.149, 4-(4-(((E)-2-(aminomethyl)-3-fluoroallyl)oxy)phenyl)-N-((1s,3s)-3-(tert-butoxy)cyclobutyl)bicyclo[2.2.2] octane-1-carboxamide], at most 10 nM.

With `NC/C(=C\F)COc1ccc(C23CCC(C(=O)NC4(C(F)(F)F)CCOCC4)(CC2)CC3)cc1` [Compound 2.152, (E)-4-(4-((2-(aminomethyl)-3-fluoroallyl)oxy)phenyl)-N-(4-(trifluoromethyl)tetrahydro-2H-pyran-4-yl)bicyclo[2.2.2]octane-1-carboxamide], the IC50 is at most 10 nM.

Turning to `CO[C@H]1CC[C@H](NC(=O)C23CC(c4ccc(OC/C(=C/F)CN)cc4)(C2)C3)CC1` [Compound 3.04, 3-(4-(((E)-2-(aminomethyl)-3-fluoroallyl)oxy)phenyl)-N-((1r,4r)-4-methoxycyclohexyl)bicyclo[1.1.1] pentane-1-carboxamide], the IC50 is at most 10 nM.
